# Test results published in US9603922B2, “Modulation of NKT cell activity with antigen-loaded CD1d molecules” (VACCINEX, INC., priority 2007, dated 2017).
# Key:
# [1] = system: iNKT cells; experiment: Activity in vitro of ceramide-like glycolipid antigens (Table 3); format: cell-based, mouse; conditions: partly also in vivo
# Protocol: The ability of a composition of the present invention to modulate an immune response can be readily determined by an in vitro assay. NKT cells for use in the assays include transformed NKT cell lines, or NKT cells which are isolated from a mammal, e.g., from a human or from a rodent such as a mouse. NKT cells can be isolated from a mammal by sorting cells that bind CD1d:α-GalCer tetramers.
# The NKT cells employed in the assays are incubated under conditions suitable for proliferation. […] Serial dilutions of the compound can be added to the NKT cell culture medium.
# (§1) Alternatively, rather than measurement of an expressed protein such as IL-4 or IFN-γ, modulation of NKT cell activation can be determined by changes in antigen-dependent T cell proliferation as measured by radiolabelling techniques as are recognized in the art. For example, a labeled (e.g., tritiated) nucleotide may be introduced to an assay culture medium. Incorporation of such a tagged nucleotide into DNA serves as a measure of T cell proliferation. […] A difference in the level of T cell proliferation following contact with the compound of the invention indicates the complex modulates activity of the T cells. For example, a decrease in NKT cell proliferation indicates the compound can suppress an immune response. An increase in NKT cell proliferation indicates the compound can stimulate an immune response.
# [2] = system: human iNKT cells; experiment: Recognition by human iNKT cells (Table 3 comments); format: cell-based
# [3] = system: splenocytes; experiment: Splenocyte stimulation assay: proliferation and cytokine secretion (Table 3 comments); format: cell-based, mouse; conditions: for Comments: cytokine secretion (IL-4, IFNγ): cytokine secretion assays; for Comments: IL-4 relative to IFNγ: in vitro with splenocytes from NZB/W F1 mice
# Text: (§2) The ability of a composition of the present invention to modulate an immune response can be readily determined by an in vitro assay. NKT cells for use in the assays include transformed NKT cell lines, or NKT cells which are isolated from a mammal, e.g., from a human or from a rodent such as a mouse. NKT cells can be isolated from a mammal by sorting cells that bind CD1d:α-GalCer tetramers. See, for example, Benlagha et al., J Exp Med 191 (2000), pp. 1895-1903; Matsuda et al., J Exp Med 192 (2000), pp. 741-754; and Karadimitris et al., Proc Natl Acad Sci USA 98 (2001), pp. 3294-3298. A suitable assay to determine if a compound of the present invention is capable of modulating the activity of NKT cells is conducted by coculturing NKT cells and antigen presenting cells, adding the particular compound of interest to the culture medium that targets either the antigen presenting cells or the NKT cells directly, and measuring IL-4 or IFN-γ production. A significant increase or decrease in IL-4 or IFN-γ production over the same co-culture of cells in the absence of the compound of the invention or, preferably, in the presence of a compound of the invention with a non-targeting antibody indicates stimulation or inhibition of NKT cells.
# as §1
# [4] = system: SLE in NZB/W F1 mice; experiment: SLE in NZB/W F1 mice (Table 3 comments); format: in vivo, mouse
# [5] = system: iNKT cells; experiment: Activity in vivo of ceramide-like glycolipid antigens, serum cytokine response (Table 3); conditions: serum cytokines
# Text: In vivo assays also may be suitably employed to determine the ability of a composition of the invention to modulate the activity of NKT cells. For example, a composition of interest can be assayed for its ability to stimulate NKT cell activation or inhibit tumor growth. For example, a composition of the invention can be administered to a mammal such as a mouse, before or after challenge with a tumorigenic dose of transformed cells and the presence or size of growing tumors may be monitored.
# [6] = system: iNKT cells; conditions: reported by others, in vivo IFNγ; cited from earlier work
# [7] = system: mouse iNKT hybridoma; experiment: iNKT hybridoma stimulation assay (Table 3 comments); format: cell-based
# Text: as §2
# The NKT cells employed in the assays are incubated under conditions suitable for proliferation. For example, an NKT cell hybridoma is suitably incubated at about 37° C. and 5% CO2 in complete culture medium (RPMI 1640 supplemented with 10% FBS, penicillin/streptomycin, L-glutamine and 5×10−5 M 2-mercaptoethanol). Serial dilutions of the compound can be added to the NKT cell culture medium.
# [8] = system: mouse iNKT hybridoma / human CD1d + HeLa cells; experiment: Presentation to mouse iNKT hybridoma by human CD1d + HeLa cells (Table 3 comments); format: cell-based
structure (smiles),measurement,setting,value
"CCCCCCCCCCCCCCCCCCCCCCCC(=O)N[C@@H](COC1OC(CO)C(O)C(O)C1O)[C@H](O)[C@H](O)CCCCC (stereo partly drawn) [AH04-1, reference compound]",Comments: iNKT agonist activity and cytokine profile in words,[1],"Weaker agonist than DB03-4 in our hands, and skewing of cytokine response not very impressive in most assays"
same,Comments: recognition by human iNKT cells,[2],seems NOT to be recognized by human iNKT cells
CCCC/C=C/C=C/C=C\CCCCCCCC(=O)N[C@@H](COC1OC(CO)C(O)C(O)C1O)[C@H](O)[C@H](O)CCCCCCCCCCCCCC (stereo partly drawn) [DB05-17],"Comments: cytokine secretion (IL-4, IFNγ)",[3],moderately strong in cytokine secretion assays with moderate IL-4 predominance
same,Comments: splenocyte proliferation,[3],Weak in splenocyte prolif
CCCCCC/C=C\C=C/CCCCCCCC(=O)N[C@@H](COC1OC(CO)C(O)C(O)C1O)[C@H](O)[C@H](O)CCCCCCCCCCCCCC (stereo partly drawn) [DB05-11],Comments: splenocyte proliferation,[3],possibly more active in proliferation assay
same,Comments: iNKT agonist activity and cytokine profile in words,[1],A potent Th2-biased analogue similar to DB05-9
CCCCCCCCCCCCCCCCCCCCCCCC(=O)N[C@@H](COC1OC(C)[C@@H](O)C(O)C1O)[C@H](O)[C@H](O)CCCCCCCCCCCCCC (stereo partly drawn) [DB03-8],Comments: iNKT agonist activity and cytokine profile in words,[1],Weak iNKT agonist activity in vitro
same,Comments: effect on SLE,[4],exacerbates SLE in NZB/W F1 mice
same,Comments: in vivo cytokine response in words,[5],No serum cytokine response in vivo
CCCCC/C=C\C=C\CCCCCCCCC(=O)N[C@@H](COC1OC(CO)C(O)C(O)C1O)[C@H](O)[C@H](O)CCCCCCCCCCCCCC (stereo partly drawn) [DB05-9],Comments: iNKT agonist activity and cytokine profile in words,[1],A potent Th2-biased agonist in vitro. Not tested yet in vivo (122206)
CCCCC/C=C\C/C=C\C/C=C\C/C=C\CCCC(=O)N[C@@H](COC1OC(CO)C(O)C(O)C1O)[C@H](O)[C@H](O)CCCCCCCCCCCCCC (stereo partly drawn) [DB03-5],Comments: iNKT agonist activity and cytokine profile in words,[1],"“Type 2 Cytokine bias”: Strong inducer of iNKT cell IL-4 response, with blunted IFNγ and NK cell transactivation."
CCCCC\C=C/C=C/C=C/CCCCCCC(=O)N[C@@H](COC1OC(CO)C(O)C(O)C1O)[C@H](O)[C@H](O)CCCCCCCCCCCCCC (stereo partly drawn) [DB05-14],"Comments: cytokine secretion (IL-4, IFNγ)",[3],strong IL-4 secretion bias
same,Comments: splenocyte proliferation,[3],Very active in prolif
CCCCCCCCCCCCCCCCCCCCCCCC(=O)N[C@@H](COC1OC(CO)C(O)C(O)C1O)[C@H](O)[C@H](O)CCCCCCCCCCCCCC (stereo partly drawn) [DB02-1],Comments: iNKT agonist activity and cytokine profile in words,[1],"Moderate to weak iNKT agonist in vitro and in vivo. Gives reasonably strong early IL-4 response, with reduced late IFNγ like DB03-4 or OCH."
"CCCCCCCCCCCCCCCCCCCCCCCCCC(=O)N[C@@H](COC1OC(CO)C(O)C(O)C1O)[C@H](O)[C@H](O)CCCCCCCCCCCCCC (stereo partly drawn) [DB04-1 (KRN 7000), reference compound]",Comments: iNKT agonist activity and cytokine profile in words,[1],"KRN7000. Strong agonist, mixed IL-4 and IFNγ response both in vivo and in vitro."
CCCCCCCCCCCCCCCCCCCCCCCCCC(=O)N[C@@H](CCC1OC(CO)C(O)C(O)C1O)[C@H](O)[C@H](O)CCCCCCCCCCCCCC (stereo partly drawn) [RF03-1],Comments: reported agonist activity,[6],"C-glycoside of KRN7000. Reported to be strong agonist, with enhanced IFNγ production in vivo. May have slower kinetics of activation."
CCCCCCCCCCCCCCCCCCCCCCCCCC(=O)N[C@@H](COC1OC(C)[C@@H](O)C(O)C1O)[C@H](O)[C@H](O)CCCCCCCCCCCCCC (stereo partly drawn) [DB06-14],"Comments: cytokine secretion (IL-4, IFNγ)",[3],moderate IL-4 secretion at high concentration with weak IFNg
same,Comments: activity in splenocyte stimulation assay,[3]; overall activity,Weakly active in splenocyte stimulation in vitro
same,Comments: splenocyte proliferation,[3],Minimal or no prolif
CCCC/C=C\C/C=C\CCCCCCCCCC(=O)N[C@@H](COC1OC(CO)C(O)C(O)C1O)[C@H](O)[C@H](O)CCCCCCCCCCCCCC (stereo partly drawn) [DB03-4],Comments: iNKT agonist activity and cytokine profile in words,[1],"“Type 2 Cytokine bias”: Strong inducer of iNKT cell IL-4 response, with blunted IFNγ and NK cell transactivation."
CCCCCCCCCCCCCC[C@@H](O)[C@@H](O)[C@H](COC1OC(CO)C(O)C(O)C1O)NC(=O)CCCCCCCCC (stereo partly drawn) [YTC03-34],Comments: activity in iNKT hybridoma stimulation assay,[7],Moderate activity with mouse iNKT hybridoma
same,Comments: in vivo cytokine response in words,[5],Active in vivo with good IL-4 production assoc. with weak IFNgamma and weak IL-12 p70
CCCCC/C=C\C/C=C\CCCCCCCCCC(=O)N[C@@H](COC1OC(CO)C(O)C(O)C1O)[C@H](O)[C@H](O)CCCCCCCCCCCCCC (stereo partly drawn) [DB06-15],"Comments: cytokine secretion (IL-4, IFNγ)",[3],Weak IL-4 and even weaker INFg secretion
same,Comments: splenocyte proliferation,[3],Moderately active in splenocyte prolif
CCCCCCCCCCCCCC[C@@H](O)[C@@H](O)[C@H](COC1OC(CO)C(O)C(O)C1O)NC(=O)C(c1ccccc1)c1ccccc1 (stereo partly drawn) [YTC03-17],Comments: iNKT agonist activity and cytokine profile in words,[1],Very strong agonist in some in vitro studies
same,Comments: in vivo cytokine response in words,[5],no activity detectable in vivo (cytokine stimulation)
CCCCCCCCCCCCCC[C@@H](O)[C@@H](O)[C@H](COC1OC(CO)C(O)C(O)C1O)NC(=O)Cc1ccc(F)cc1 (stereo partly drawn) [YTC03-30],Comments: IL-4 relative to IFNγ,[3],Possible enhanced IL-4 relative to IFNγ
same,Comments: activity when presented to mouse iNKT hybridoma by human CD1d + HeLa cells,[8],EXTREMELY active
CCCCCCCCCCCCCC[C@@H](O)[C@@H](O)[C@H](COC1OC(CO)C(O)C(O)C1O)NC(=O)Cc1ccc(OC)c(OC)c1 (stereo partly drawn) [YTC03-24],Comments: IL-4 relative to IFNγ,[3],Possible enhanced IL-4 relative to IFNγ in vitro with splenocytes from NZB/W F1 mice
"CCCCCCCCCCCCCCCCCCCCCCCCCC(=O)N[C@@H](CSC1OC(CO)C(O)C(O)C1O)[C@H](O)[C@H](O)CCCCCCCCCCCCCC (stereo partly drawn) [SKRN 7000, reference compound]",Comments: activity in iNKT hybridoma stimulation assay,[7],No agonist activity in iNKT hybridoma assay
same,Comments: autoreactivity of iNKT cell hybridoma,[7],seemed to reduce autoreactivity of iNKT cell hybridoma
CCCCCCCCCCCCCCCCCC(=O)N[C@@H](COC1OC(CO)C(O)C(O)C1O)[C@H](O)[C@H](O)CCCCCCCCCCCCCC (stereo partly drawn) [YTC03-15],Comments: activity when presented to mouse iNKT hybridoma by human CD1d + HeLa cells,[8],EXTREMELY active when presented to mouse iNKT hybridoma by human CD1d + HeLa cells
CCCCCCCCCCCCCCCCCCCCCCCC(=O)N[C@@H](COC1OC(CO)C(O)C(O)C1O)[C@H](O)CCCCCC (stereo partly drawn) [AH04-2],Comments: activity in iNKT hybridoma stimulation assay,[7],About a half log more potent than OCH in hybridoma stimulation assay
